Reference: patent publication US9126941B2, “Treatment of hyperproliferative disorders with diarylhydantoin compounds” (The Regents of the University of California, priority 2005, dated 2015)
Like-named read-outs stand apart in the source and are kept apart here.

How the values were obtained:
AR [1] = molecular target: T1, AR (Homo sapiens, UniProt P10275); assay: cell-based; type: cell-based; conditions: for IC50 (nM) Reporter: LNCaP-AR, 100 pM R1881, two days, No = did not inhibit AR response reporter; for Rank order, most active to least active, relative luciferase activity (FIG. 3): 500 nM
Protocol: The compounds were subjected to tests using an artificial AR response reporter system in a hormone refractory prostate cancer cell line. […] After two days of incubation, reporter activities were assayed.

AR [2] = molecular target: T1, AR; assay: cell-based; type: cell-based; conditions: for PSA levels of LN-AR cells (FIG. 21): doses of 100, 200, 500 and 1000 nM
Protocol: It is well established that PSA levels are indicators of AR activities in prostate cancer. […] The LNCaP-AR cells are a line of lymph node carcinoma of prostate cells transduced with a plasmid that makes express androgen receptors. […] After four days incubation, secreted PSA levels were assayed using PSA ELISA kits (American Qualex, San Clemente, Calif.)

T1 sequence (P10275 whole entry, looked up): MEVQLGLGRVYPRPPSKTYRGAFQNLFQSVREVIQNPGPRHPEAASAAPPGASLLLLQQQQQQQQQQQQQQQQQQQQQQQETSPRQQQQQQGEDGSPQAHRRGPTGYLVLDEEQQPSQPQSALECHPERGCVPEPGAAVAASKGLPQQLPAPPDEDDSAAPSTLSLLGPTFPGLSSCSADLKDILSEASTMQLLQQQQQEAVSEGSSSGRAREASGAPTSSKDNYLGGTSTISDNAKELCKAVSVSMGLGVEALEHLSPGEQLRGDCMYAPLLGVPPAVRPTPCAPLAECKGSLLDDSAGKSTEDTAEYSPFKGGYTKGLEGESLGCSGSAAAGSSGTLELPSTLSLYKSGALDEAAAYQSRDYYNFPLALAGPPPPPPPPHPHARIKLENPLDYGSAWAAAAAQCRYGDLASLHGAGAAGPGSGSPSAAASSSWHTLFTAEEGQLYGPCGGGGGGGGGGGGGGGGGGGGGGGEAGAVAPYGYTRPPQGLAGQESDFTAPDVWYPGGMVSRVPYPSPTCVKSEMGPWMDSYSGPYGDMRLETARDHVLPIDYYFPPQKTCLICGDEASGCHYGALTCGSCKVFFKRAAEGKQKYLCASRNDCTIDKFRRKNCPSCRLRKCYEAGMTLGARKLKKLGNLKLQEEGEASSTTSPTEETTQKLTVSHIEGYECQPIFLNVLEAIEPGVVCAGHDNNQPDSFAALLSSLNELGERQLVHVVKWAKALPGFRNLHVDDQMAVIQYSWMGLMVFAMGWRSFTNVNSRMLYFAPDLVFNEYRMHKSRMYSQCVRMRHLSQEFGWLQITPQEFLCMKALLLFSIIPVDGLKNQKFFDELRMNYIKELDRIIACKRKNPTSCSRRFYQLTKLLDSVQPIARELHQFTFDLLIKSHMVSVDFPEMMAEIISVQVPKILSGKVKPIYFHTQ

## CC1(C)C(=O)N(c2ccc(C#N)c(C(F)(F)F)c2)C(=S)N1c1ccccc1 [Example 6-2, 4-[3-phenyl-4,4-dimethyl-5-oxo-2-thioxoimidazolidin-1-yl]-2-trifluoromethylbenzonitrile]
AR [1]
  IC50: 149 nM

## CC1(C)C(=O)N(c2ccc(C#N)c(C(F)(F)F)c2)C(=S)N1c1ccc(N)cc1 [RD9, 4-[3-(4-aminophenyl)-4,4-dimethyl-5-oxo-2-thioxoimidazolidin-1-yl]-2-trifluoromethylbenzonitrile]
AR [1]
  IC50: 273 nM

## CC1(C)C(=O)N(c2ccc(C#N)c(C(F)(F)F)c2)C(=S)N1c1ccc(OC(=O)CCl)cc1 [RD13, Chloroacetic acid 4-[3-(4-cyano-3-trifluoromethylphenyl)-5,5-dimethyl-4-oxo-2-thioxoimidazolidin-1-yl]phenyl ester]
AR [1]
  IC50: 131 nM

## Cc1ccc(N2C(=S)N(c3ccc(C#N)c(C(F)(F)F)c3)C(=O)C23CCCC3)cc1 [RD35, 4-(4-oxo-2-thioxo-1-(4-methylphenyl)-1,3-diazaspiro[4.4]non-3-yl)-2-trifluoromethylbenzonitrile]
AR [1]
  IC50: 147 nM

## Cc1ccc(N2C(=S)N(c3ccc(C#N)c(C(F)(F)F)c3)C(=O)C23CCCCC3)cc1 [RD48, 4-(4-oxo-2-thioxo-1-(4-methylphenyl)-1,3-diazaspiro[4.5]dec-3-yl)-2-trifluoromethylbenzonitrile]
AR [1]
  IC50: 194 nM

## CN1CCC2(CC1)NC(=S)N(c1ccc(C#N)c(C(F)(F)F)c1)C2=O [RD52, 4-(8-methyl-4-oxo-2-thioxo-1,3,8-triazaspiro[4.5]dec-3-yl)-2-trifluoromethylbenzonitrile, reference compound]
AR [1]
  IC50 (nM) Reporter: No

## Cc1ccc(N2C(=S)N(c3ccc(C#N)c(C(F)(F)F)c3)C(=O)C23CCN(C)CC3)cc1 [RD53, 4-(8-methyl-4-oxo-2-thioxo-1-(4-methylphenyl)-1,3,8-triazaspiro[4.5]dec-3-yl)-2-trifluoromethylbenzonitrile]
AR [1]
  IC50: 638 nM

## N#Cc1ccc(N2C(=O)C3(CCCC3)N(c3ccc([N+](=O)[O-])cc3)C2=S)cc1C(F)(F)F [RD55, 4-[1-(4-nitrophenyl)-4-oxo-2-thioxo-1,3-diazaspiro[4.4]non-3-yl]-2-trifluoromethylbenzonitrile]
AR [1]
  IC50: 498 nM

## N#Cc1ccc(N2C(=O)C3(CCC3)N(c3ccc(-c4ccccc4)cc3)C2=S)cc1C(F)(F)F [RD57, 4-(8-oxo-6-thioxo-5-(4-biphenyl)-5,7-diazaspiro[3.4]oct-7-yl)-2-trifluoromethylbenzonitrile]
AR [1]
  IC50: 283 nM

## N#Cc1ccc(N2C(=O)C3(CCC3)N(c3ccc(O)cc3)C2=S)cc1C(F)(F)F [RD58, 4-(8-oxo-6-thioxo-5-(4-hydroxyphenyl)-5,7-diazaspiro[3.4]oct-7-yl)-2-trifluoromethylbenzonitrile]
AR [1]
  IC50: 162 nM

## CC1(C)C(=S)N(c2ccc(C#N)c(C(F)(F)F)c2)C(=S)N1c1ccc(O)cc1 [RD59, 4-[3-(4-hydroxyphenyl)-4,4-dimethyl-2,5-dithioxoazolidin-1-yl]-2-trifluoromethylbenzonitrile]
AR [2]
  IC50: 287 nM
AR [1]
  IC50: 278 nM

## CC1(C)C(=O)N(c2ccc(C#N)c(C(F)(F)F)c2)C(=S)N1c1ccccc1C(=O)O [RD65, 2-[3-(4-cyano-3-trifluoromethylphenyl)-5,5-dimethyl-4-oxo-2-thioxoimidazolidin-1-yl]benzoic acid]
AR [2]
  IC50: > 500 nM
AR [1]
  IC50: 523 nM

## CC1(C)C(=O)N(c2ccc(C#N)c(C(F)(F)F)c2)C(=S)N1c1ccc(C(F)(F)F)cc1 [RD66, 4-(4,4-dimethyl-5-oxo-2-thioxo-3-(4-trifluoromethylphenyl)imidazolidin-1-yl)-2-trifluoromethylbenzonitrile]
AR [2]
  IC50: 144 nM
AR [1]
  IC50: 143 nM

## Cc1ccc(N2C(=S)N(c3ccc(C#N)c(C(F)(F)F)c3)C(=O)C2(CCl)CCl)cc1 [RD67, 4-(4,4-bischloromethyl-5-oxo-2-thioxo-3-(4-methylphenyl)imidazolidin-1-yl)-2-trifluoromethylbenzonitrile]
AR [2]
  IC50: > 500 nM
AR [1]
  IC50: 521 nM

## Cc1ccc(N2C(=S)N(c3ccc(C#N)c(C(F)(F)F)c3)C(=O)C2(C)CF)cc1 (centres unmarked) [RD68, 4-(4-fluoromethyl-4-methyl-5-oxo-2-thioxo-3-(4-methylphenyl)imidazolidin-1-yl)-2-trifluoromethylbenzonitrile]
AR [2]
  IC50: 129 nM
AR [1]
  IC50: 126 nM

## CC1(C)C(=O)N(c2ccc(C#N)c(C(F)(F)F)c2)C(=S)N1c1ccccn1 [RD82, 4-[4,4-dimethyl-3-(4-pyridin-2-yl)-5-oxo-2-thioxoimidazolidin-1-yl]-2-trifluoromethylbenzonitrile]
AR [1]
  IC50: 723 nM

## Cc1ccnc(N2C(=S)N(c3ccc(C#N)c(C(F)(F)F)c3)C(=O)C2(C)C)c1 [RD83, 4-[4,4-dimethyl-3-(4-methylpyridin-2-yl)-5-oxo-2-thioxoimidazolidin-1-yl]-2-trifluoromethylbenzonitrile]
AR [1]
  IC50: 457 nM

## Cc1cc(N2C(=S)N(c3ccc(C#N)c(C(F)(F)F)c3)C(=O)C23CCC3)[nH]n1 [RD84, 4-[5-(5-methyl-2H-pyrazol-3-yl)-8-oxo-6-thioxo-5,7-diaza-spiro[3.4]oct-7-yl]-2-trifluoromethyl-benzonitrile, reference compound]
AR [1]
  IC50: > 1000 nM

## N#Cc1ccc(N2C(=O)C3(CCC3)N(c3ccc(C=O)cc3)C2=S)cc1C(F)(F)F [RD114, 4-[5-(4-formylphenyl)-8-oxo-6-thioxo-5,7-diazaspiro[3.4]oct-7-yl]-2-trifluoromethyl-benzonitrile]
AR [2]
  IC50: 263 nM

## CC(O)c1ccc(N2C(=S)N(c3ccc(C#N)c(C(F)(F)F)c3)C(=O)C23CCC3)cc1 (centres unmarked) [RD116, 4-{5-[4-(1-hydroxyethyl)-phenyl]-8-oxo-6-thioxo-5,7-diazaspiro[3.4]oct-7-yl}-2-trifluoromethyl-benzonitrile]
AR [2]
  IC50: 187 nM

## N#Cc1ccc(N2C(=O)C3(CCC3)N(c3ccc(/C=C/C(N)=O)cc3)C2=S)cc1C(F)(F)F [RD119, 3-{4-[7-(4-Cyano-3-trifluoromethyl-phenyl)-8-oxo-6-thioxo-5,7-diaza-spiro[3.4]oct-5-yl]-phenyl}-acrylamide]
AR [2]
  IC50: 113 nM

## N#Cc1ccc(N2C(=O)C3(CCC3)N(c3ccc(/C=C/CO)cc3)C2=S)cc1C(F)(F)F [RD120, 4-{5-[4-(3-hydroxypropenyl)-phenyl]-8-oxo-6-thioxo-5,7-diazaspiro[3.4]oct-7-yl}-2-trifluoromethylbenzonitrile]
AR [2]
  IC50: 114 nM

## COC(=O)CCc1ccc(N2C(=S)N(c3ccc(C#N)c(C(F)(F)F)c3)C(=O)C23CCC3)cc1 [RD128, 3-{4-[7-(4-cyano-3-trifluoromethylphenyl)-8-oxo-6-thioxo-5,7-diazaspiro[3.4]oct-5-yl]-phenyl}-propionic acid methyl ester]
AR [1]
  IC50 (nM) Reporter: No

## COC(=O)CCCc1ccc(N2C(=S)N(c3ccc(C#N)c(C(F)(F)F)c3)C(=O)C23CCC3)cc1 [RD129, 4-{4-[7-(4-cyano-3-trifluoromethylphenyl)-8-oxo-6-thioxo-5,7-diazaspiro[3.4]oct-5-yl]-phenyl}-butyric acid methyl ester]
AR [1]
  IC50: 432 nM

## CS(=O)(=O)c1ccc(N2C(=S)N(c3ccc(C#N)c(C(F)(F)F)c3)C(=O)C23CCC3)cc1 [RD145, 4-[5-(4-methanesulfonylphenyl)-8-oxo-6-thioxo-5,7-diazaspiro[3.4]oct-7-yl]-2-trifluoromethylbenzonitrile]
AR [1]
  Luciferase activity in LNCaP-AR cells (FIG. 3): acted to reduce luciferase activity
  Rank order, most active to least active, relative luciferase activity (FIG. 3): RD152>RD153>RD145>RD163>RD161=RD162>bicalutamide

## COC(=O)c1ccc(N2C(=S)N(c3ccc(C#N)c(C(F)(F)F)c3)C(=O)C2(C)C)cc1 [RD152, 4-[3-(4-cyano-3-trifluoromethylphenyl)-5,5-dimethyl-4-oxo-2-thioxo-imidazolidin-1-yl]benzoic acid methyl ester]
AR [1]
  Luciferase activity in LNCaP-AR cells (FIG. 3): acted to reduce luciferase activity
  Rank order, most active to least active, relative luciferase activity (FIG. 3): RD152>RD153>RD145>RD163>RD161=RD162>bicalutamide

## CNC(=O)c1ccc(N2C(=S)N(c3ccc(C#N)c(C(F)(F)F)c3)C(=O)C2(C)C)cc1 [RD153, 4-[3-(4-cyano-3-trifluoromethylphenyl)-5,5-dimethyl-4-oxo-2-thioxo-imidazolidin-1-yl]-N-methylbenzamide]
AR [1]
  Luciferase activity in LNCaP-AR cells (FIG. 3): acted to reduce luciferase activity
  Rank order, most active to least active, relative luciferase activity (FIG. 3): RD152>RD153>RD145>RD163>RD161=RD162>bicalutamide
AR [1]; for a given concentration, 125 nmol to 1000 nmol
  Luciferase activity, LN/AR cell line (FIG. 29): less than the luciferase activity upon exposure to RD155

## CNC(=O)c1ccc(N2C(=S)N(c3ccc(C#N)c(C(F)(F)F)c3)C(=O)C23CCCC3)cc1F [RD162″, 4-(3-(4-Cyano-3-(trifluoromethyl)phenyl)-4-oxo-2-thioxo-1,3-diazaspiro[4.4]nonan-1-yl)-2-fluoro-N-methylbenzamide]
AR [2]
  PSA levels of LN-AR cells (FIG. 21): decreased

## N#Cc1ccc(N2C(=O)C3(CCC3)N(c3ccc(O)cc3F)C2=S)cc1C(F)(F)F [RD163, 4-[5-(2-fluoro-4-hydroxyphenyl)-8-oxo-6-thioxo-5,7-diazaspiro[3.4]oct-7-yl]-2-trifluoromethylbenzonitrile]
AR [1]
  Luciferase activity in LNCaP-AR cells (FIG. 3): acted to reduce luciferase activity
  Rank order, most active to least active, relative luciferase activity (FIG. 3): RD152>RD153>RD145>RD163>RD161=RD162>bicalutamide

## CN(C)C(=O)CCCc1ccc(N2C(=S)N(c3ccc(C#N)c(C(F)(F)F)c3)C(=O)C23CCC3)cc1 [RD169, 4-(4-(7-(4-Cyano-3-(trifluoromethyl)phenyl)-8-oxo-6-thioxo-5,7-diazaspiro[3.4]octan-5-yl)phenyl)-N,N-dimethylbutanamide]
AR [2]
  PSA levels of LN-AR cells (FIG. 21): decreased

## N#CCCCc1ccc(N2C(=S)N(c3ccc(C#N)c(C(F)(F)F)c3)C(=O)C23CCC3)cc1 [RD170, 4-(5-(4-(3-Cyanopropyl)phenyl)-8-oxo-6-thioxo-5,7-diazaspiro[3.4]octan-7-yl)-2-(trifluoromethyl)benzonitrile]
AR [2]
  PSA levels of LN-AR cells (FIG. 21): decreased
